Literature values in PMC5354290 (PLoS ONE, 2017).

Tests used:
[1] = system: rat model of spared nerve injury; conditions: in vivo, iv
[2] = system: rat model of formalin-induced pain; conditions: in vivo, iv

Molecule | effective dose, times lower than those usually required for analgesia [1] | effective dose, times lower than those usually required for analgesia [2] | inhibition (in words) (rNaV1.5) | inhibition (in words) (rat NaV1.2) | inhibition (in words) (rNaV1.4) | inhibition (in words) (rNaV1.3)
CN1CC[C@]23c4c5ccc(O)c4O[C@H]2[C@@H](O)C=C[C@H]3[C@H]1C5 [morphine] | at least 20 times | at least 20 times |  |  |  | 
Huwentoxin-IV [HwTx-IV] |  |  | far less potent | inhibits | far less potent | inhibits
